Values quoted from earlier work as cited in US20220160648A1, “Composition Comprising Hydrolyzed Collagen and Cannabidiol and Use Thereof” (Inspired Health Products, LLC, priority 2019, published 2022).

Assays:
[1] = reported
[2] = ingested, dosages from at least 3 g to as much as 60 g per day

Row | SMILES | anticonvulsant properties [1] | effect on sleep [2]
1 | C=C(C)[C@@H]1CCC(C)=C[C@H]1c1c(O)cc(CCCCC)cc1O [CBD isolate, 2-[(1R,6R)-3-methyl-6-prop-1-en-2-ylcyclohex-2-en-1-yl]-5-pentylbenzene-1,3-diol] | did not | 
2 | NCC(=O)O [glycine] |  | beneficial effect on sleep
